Reference: patent publication US20190167771A1, “CONTROL ANGIOGENESIS BY REGULATING PHOSPHORYLATION OF SERYL-tRNA SYNTHETASE (SerRS)” (The Scripps Research Institute, priority 2016, published 2019)

Columns and labels:
SerRS phosphorylation = experiment: Hypoxia-induced phosphorylation of endogenous SerRS in HEK293 cells with ATM/ATR inhibitors (IP/IB); format: cell-based, human; conditions: HEK293 pretreated with inhibitor for one hour, hypoxia 12 hours
Protocol: In FIG. 7C, HEK293 cells were pretreated with specific ATM inhibitor KU-55933 and ATR inhibitor VE-821 for one hour and then cultured under hypoxia condition for 12 hours. Cell lysates were subjected to IP with anti-SerRS antibody followed by immunoblot (IB) with anti-P-SQ antibody for detecting phosphorylated SerRS (P-SerRS). Phosphorylation of known ATM/ATR substrates (Chk1 and Chk2) was also immunoblotted.
Cells were resuspended with lysis buffer (20 mM Tris-HCl (pH 7.5), 150 mM NaCl, 1 mM of EDTA, 1 mM EGTA, 1% Triton X-100, 2.5 mM sodium pyrophosphate, 1 mM beta-glycerophosphate, 1 mM Na3VO4, and protease inhibitor cocktail) on ice. Supernatants were incubated with indicated antibodies and protein-G-conjugated agarose beads (ThermoFisher Scientific) for at least 2 h. The beads were washed five times with wash buffer (same as the lysis buffer, except that Triton X-100 was reduced from 1% to 0.1%) and then subjected to SDS-PAGE and immunoblotting analysis with indicated antibodies.

VEGFA [1] = experiment: VEGFA mRNA induction by 12-hour hypoxia in HEK293 cells (qRT-PCR); format: cell-based, human; conditions: inhibitor 5 μM pretreatment, hypoxia 12 hours
Protocol: In FIG. 3B, HEK293 cells were transiently transfected with SerRS^WT or SerRS^S101A/S241A constructs or empty control vector. 24 hours post-transfection, VEGFA mRNA induction by 12-hour-hypoxia treatment was monitored by qRT-PCR (means±SEM from four independent experiments; *P<0.05, **P<0.01, ***P<0.005). In FIG. 3C, HEK293 cells were transiently transfected with indicated constructs. 36 hours post-transfection, VEGFA mRNA induction by 12-hour-hypoxia treatment was monitored by qRT-PCR (means±SEM from four independent experiments; *P<0.0, **P<0.001, ***P<0.0001). The protein levels of SerRS, HIF-1α, and β-actin were examined by western blot (bottom).
Transient transfections were performed using Lipofectamine 2000 (ThermoFisher Scientific).
One gram of the total RNA from each sample was reversely transcribed to cDNA by M-MLV reverse transcriptase (Promega, Madison, Wis., USA). All real-time PCR reactions were performed using the StepOnePlus Real-Time PCR system (ThermoFisher Scientific) with SYBR Select Master Mix ThermoFisher Scientific). […] The PCR reaction program started at 95° C. for 10 min, followed by 45 cycles of 95° C. for 20 seconds and 60° C. for 1 min. Each experiment was carried out in triplicate. The VEGFA gene expression was normalized to that of β-ACTIN. Statistical analyses were performed with the software SigmaPlot (version 10.0). Student's t-test was used to analyze the changes between different groups.

ATM/ATR kinases = experiment: In vitro phosphorylation of recombinant SerRS by DNA-activated HEK293 nuclear extract (p-SQ immunoblot, 32P-labelling); format: biochemical, human; conditions: recombinant his6-tagged protein, p-SQ antibody and 32P-labelling
Protocol: FIGS. 1A-G show SerRS is important for hypoxia induced VEGFA expression and is phosphorylated by ATM and ATR kinases under hypoxia at serine 101 and serine 241 residues. In FIG. 1A, HEK293 cells were transfected with shRNAs targeting SerRS (sh-SerRS) or GlyRS (sh-GlyRS), or nonspecific control shRNA (sh-Control). 48 hours post-transfection, cells were cultured under hypoxia or normoxia conditions for 12 hours. Immunoblot of cell lysates with anti-SerRS, anti-GlyRS and anti-β-actin antibodies (left). VEGFA expression levels were measured by qRT-PCR (right) and relative induction of VEGFA transcription under hypoxia were plotted (right, inset) (means±SEM. from four independent experiments; *P<0.01, **P<0.0001). […] The conserved ATM/ATR substrate motif residues are underlined. In FIG. 1C, recombinant his6-tagged human SerRS or GlyRS were incubated with γ-^32P-ATP and HEK293 cell nuclear extracts which are treated with or without double-stranded DNA oligoes mimicking DNA damage stimuli to activate ATM/ATR/DNA-PK kinases. Recombinant proteins were then purified by Ni-NTA beads and subjected to SDS-PAGE and autoradiography. In FIG. 1D, recombinant his6-tagged two human aminoacyl tRNA synthetases (AARS): TyrRS and GlyRS, wild type SerRS, or SerRS mutants with single or double substitutions of serine 101 and serine 241 with alanine (S101A, S241A, and S101A/S241A) were treated as described in FIG. 1C and phosphorylated recombinant proteins were immunoblotted with antibodies as indicated after purification by Ni-NTA beads. In FIG. 1E, HEK293 cells were cultured under hypoxia for 3, 6, and 12 hours. Phosphorylated SerRS was immunoblotted with specific anti-p-SQ antibody after SerRS proteins were immunoprecipitated (IP). Cell lysates were immunoblotted with indicated antibodies for known ATM and ATR substrates (Chk1 and P53). In FIG. 1F, Flag-tagged wild type and mutant SerRS constructs were transfected into HEK293 cells. 24 hours post-transfection, cells were treated with hypoxia stress for 12 hours and ectopically expressed SerRS was then purified by immunoprecipitation (IP) using anti-Flag antibody and immunoblot (IB) with anti-P-SQ antibody and anti-Flag antibody. In FIG. 1G, HEK293 cells were transfected with siRNA against ATM (si-ATM) or ATR (si-ATR) and treated with hypoxia stress for 12 hours. Phosphorylated SerRS were immunoblotted as described in FIG. 1E. […]
For protein purification, human SerRS and its mutant genes were subeloned into pET-20b(+) plasmid (Novagen, Darmstadt, Germany) and overexpressed in E. coli. […] The purities of the recombinant proteins were assessed by Coomassie blue staining following 4-12% Mini Gel (ThermoFisher Scientific) electrophoresis. Protein concentrations were determined using Bradford protein assay (BioRad, Hercules, Calif., USA). […]

Vegfa [2] = experiment: Vegfa mRNA by qRT-PCR in zebrafish embryos with SerRS knockdown and mRNA co-injection; format: in vivo; conditions: morpholino injected into 1-cell stage embryos, 3 dpf
Protocol: (§1) In FIG. 2A, wild type SerRS (SerRS^WT), its mutants with double substitutions of serine 101 and 241 with alanine or aspartic acid residues (SerRS^S101A/S241A and SerRS^S101D/S241D), or empty vector were transfected into HEK293 cells. The expression levels of SerRS proteins was measured by immunoblot (bottom) and VEGFA expression was determined by qRT-PCR (means±SEM from three independent experiments; ***P<0.0001). In FIGS. 2B-D, the roles of SerRS^S101A/S241A and SerRS^S101D/S241D in regulating vascular development in vivo in zebrafish were examined by co-injection of SerRS^S101A/S241A and SerRS^S101D/S241D mRNAs into one-cell-stage embryos whose endogenous SerRS was knocked down by injection of antisense morpholino (SerRS-MO) that led to abnormal high expression of Vegfa and hypervascularization (shown by short bold arrows in FIG. 2C). At 3 day post fertilization (dpf), embryos were harvested and Vegfa expression levels were measured by qRT-PCR (means±SEM, n=125-211; *P<0.01, **P<0.001) (B). The development of intersegmental vessel (ISV) at 3 dpf was examined (C) and the statistics of ISV abnormal branching rescued by SerRS^WT or mutant SerRS mRNA injections was analyzed (D; χ^2-test,* P>0.05 vs SerRS^WT, **P>0.1 vs SerRS-MO, ***P<1×10^−28 vs control-MO). In FIG. 2E, the binding affinities of SerRS^WT or SerRS^S101D/S241D with ^32P labeled DNA fragments corresponding to SerRS binding site on human VEGFA promoter were examined by EMSA. In FIG. 2F, the binding of SerRS^WT, SerRS^S101A/S241A, or SerRS^S101D/S241D on VEGFA promoter in HEK293 cells was examined by chromatin immunoprecipitation (ChIP) and qPCR (means±SEM from two independent experiments; ***P<0.0001). In FIG. 2G, the binding of endogenous SerRS on VEGFA promoter during hypoxia course was monitored by ChIP (means±SEM from three independent experiments; *P<0.05, **P<0.005 vs normal).
Total RNA was isolated from cells and zebrafish embryos by TRIzol Reagent (ThermoFisher Scientific). […] of the total RNA from each sample was reversely transcribed to cDNA by M-MLV reverse transcriptase (Promega, Madison, Wis., USA). All real-time PCR reactions were performed using the StepOnePlus Real-Time PCR system (ThermoFisher Scientific) with SYBR Select Master Mix ThermoFisher Scientific). […]

zebrafish embryos = experiment: Intersegmental vessel (ISV) branching in zebrafish embryos; format: in vivo; conditions: SerRS-MO alone, 3 dpf
Protocol: as §1
Transgenic Tg (Fli1a: EGFP) fish were maintained as we described before (Ref). The fish embryos were kept at 28.5° C. before and after microinjection. The antisense morpholino (MOs) targeting SerRS was injected into the yolk of 1-cell stage embryos at the dosage of 4˜5 ng per embryo. The sequence of SerRS-MO is (Ref). The SerRS-MO (5′ AGGAGAATGTGAACAAACCTGACAC 3′ (SEQ ID NO: 34)) and standard control MO (5′ CCTCTTACCTCAGTTACAATTTATA 3′ (SEQ ID NO: 35)) were purchased from Gene Tools, LLC (Philomath, Oreg. USA). After injection, embryos were incubated in E3 embryo medium supplemented with 0.003% 1-phenyl-2-thiourea (PTU) at 28.5° C. to prevent pigment formation. […] The rescue effects of different SerRS mutants on ISV development were analyzed with χ^2 test. […]

## O=c1cc(-c2cccc3c2Sc2ccccc2S3)oc(N2CCOCC2)c1 [KU-55933, reference compound]
SerRS phosphorylation
  SerRS phosphorylation under hypoxia: blocked
VEGFA [1]
  VEGFA induction under hypoxia: less but still statistically significant

## SerRS^S241A: human SerRS mutant, serine 241 substituted with alanine, SEQ ID NO: 3
ATM/ATR kinases
  level of phosphorylation in vitro: almost had no phosphorylation

## CS(=O)(=O)c1ccc(-c2cnc(N)c(C(=O)Nc3ccccc3)n2)cc1 [VE-821, reference compound]
SerRS phosphorylation
  SerRS phosphorylation under hypoxia: blocked
VEGFA [1]
  VEGFA induction under hypoxia: dramatically inhibited VEGFA induction

## SerRS-MO: antisense morpholino targeting zebrafish SerRS, SEQ ID NO: 34 (antisense AGGAGAATGTGAACAAACCTGACAC; all phosphorodiamidate morpholino (PMO)) [reference compound]
Vegfa [2]
  increase in the mRNA level of Vegfa: 4 fold
Zebrafish embryos
  zebrafish embryos with abnormal hyper-ISV branching phenotype: 69.7%

## SerRS^S101A: human SerRS mutant, serine 101 substituted with alanine, SEQ ID NO: 2
ATM/ATR kinases
  level of phosphorylation in vitro: decreased level of phosphorylation
